Source: publication PMC11231610, “Fatty acid binding to the human transport proteins FABP3, FABP4, and FABP5 from a Ligand’s perspective” (The Journal of Biological Chemistry, 2024)
Values joined by “and” are separate entries in the source; they are usually repeats but may differ in a detail not shown here. Identical values can stand only once. Values belong to the compound of their own block, whether it stands above or below them.

Key:
[1] = target: T1, FABP3 (Homo sapiens, UniProt P05413); assay: CW EPR spectra and spectral simulations of spin-probed fatty acids with FABP3; format: binding
T1 construct: purchased Sigma Aldrich
T1 sequence (P05413 whole entry): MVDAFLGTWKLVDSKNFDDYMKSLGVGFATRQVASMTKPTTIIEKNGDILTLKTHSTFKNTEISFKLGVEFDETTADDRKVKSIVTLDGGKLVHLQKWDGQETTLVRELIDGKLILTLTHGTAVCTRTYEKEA
Experimental: (§1) For a more in-depth view of the binding mechanism, CW EPR spectra of 5/16-DSA with concentration series of the FABPs were measured and simulated. […] Equal concentrations of 20 μM of each spin probe (5- and 16-DSA) were mixed with FABP concentrations of 0 to 200 μM, increasing the resulting ligand/protein ratio in the samples stepwise from 1/0 to 1/10.
(§2) To analyze the spectra quantitatively, subsequent EPR spectral simulations were performed (Fig. 2, B and C). […] For a better understanding, a first interpretation of these components is given at this point. The rotational dynamics are thought to be indirectly proportional to the strength of intermolecular interactions between fatty acid and FABP. Therefore, they are indicative of the binding state of the fatty acids. Higher rotational correlation times signalize lower ligand dynamics and stronger interactions with the protein. […] This exchange broadening can only occur if radicals are located very close distance each other, colliding with each other, leading to partial overlap of spin-bearing orbitals.
(§3) The fractions (weights) Φx of the spectral components were extracted from the EPR simulations of the concentration series and were used to calculate the concentrations of all components with Eq (1). in Figure 3. This was performed for the intermediately and strongly bound components, as well as for their sum, called totally bound 5/16-DSA, to construct binding curves for all FABPs and spin probes. […] Different fit functions were applied to the curves for a better qualitative and quantitative analysis.

[2] = target: T2, FABP4 (Homo sapiens, UniProt P15090); assay: CW EPR spectra and spectral simulations of spin-probed fatty acids with FABP4; format: binding; details: 37 °C
T2 construct: purchased Sigma Aldrich
T2 sequence (P15090 whole entry): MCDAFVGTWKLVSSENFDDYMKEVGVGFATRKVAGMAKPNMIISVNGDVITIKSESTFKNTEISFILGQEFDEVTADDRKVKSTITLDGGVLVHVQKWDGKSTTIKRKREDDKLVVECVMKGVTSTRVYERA
Experimental: as §1, §2, §3

[3] = target: T3, FABP5 (Homo sapiens, UniProt Q01469); assay: CW EPR spectra and spectral simulations of spin-probed fatty acids with FABP5; format: binding
T3 construct: purchased Sigma Aldrich
T3 sequence (Q01469 whole entry): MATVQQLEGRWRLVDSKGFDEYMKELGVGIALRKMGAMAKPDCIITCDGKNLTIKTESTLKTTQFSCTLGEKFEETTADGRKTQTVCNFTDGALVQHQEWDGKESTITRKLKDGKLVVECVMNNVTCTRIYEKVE
Experimental: as §1, §2, §3

[4] = target: T3, FABP5; assay: DHA displacement of 16-DSA from FABP5 by CW EPR; format: binding; details: FABP5/16-DSA/DHA up to 20/20/100
Source text: In a second addition during revision, we were curious about the question of whether our model ligands that bind with medium affinity to the FABP binding pocket will be displaced when we add a native ligand with higher affinity and whether we could detect this displacement with our CW EPR setup. The native ligand DHA was chosen for this displacement analysis since it is well-known to bind with high affinity to FABP5 ([26]). DHA was pre-dissolved in ethanol, diluted into buffer, and mixed with FABP5 and 16-DSA. […] Samples with FABP5/16-DSA/DHA ratios 20/20/0, 20/20/5, 20/20/10, 20/20/20, 20/20/50, and 20/20/100 were prepared with 5 min incubation time in between 16-DSA and DHA addition. […] We assume that the well-known high binding affinity of DHA refers to the state of strong binding within the pocket. […] Instead, a dynamic exchange of ligands seems to occur, as we consistently observe it with albumins from different species. However, this part opens the way to other future competitive binding assays via CW EPR spectroscopy, e.g., with pharmaceuticals that bind to FABPs.
CW EPR spectroscopic measurements were performed at X-band frequencies (∼9.4 GHz) with a benchtop spectrometer Magnettech MS-5000 (Freiberg Instruments GmbH, now Bruker Biospin). The samples were prepared in low-binding PCR tubes (250 μl). Protein and 5/16-DSA solutions were mixed with HEPES/NaCl buffer at pH 7.5, to obtain samples with a constant 5/16-DSA concentration of 20 μM and varying FABP concentrations of 200, 100, 50, 35, 25, 20, 15, 10 and 5 μM. After an incubation time of 20 min, the samples were transferred into glass capillaries, which were sealed with ‘Critoseal’. At first, solutions with 20 μM of 5/16-DSA were measured as references at 37 °C. The concentration series of FABP with 20 μM 5/16-DSA were measured at 37 °C, directly after preparation. Afterward, the sample capillaries were stored at 4 °C, and subsequent temperature-dependent measurements were performed. […]

[5] = target: FABPs; set-up: method as in PMID 11461829; details: moderate to high binding affinities of FABPs, ref [2]; cited from earlier work
[6] = target: T1, FABP3; assay: MST binding of fluorescent fatty acids to FABP3
Experimental: (§4) FABPs are known to bind more hydrophobic ligands with higher affinity ([1]).
(§5) Microscale thermophoresis (MST) experiments were carried out on a Monolith NT.115 MST device (NanoTemper Technologies GmbH). […] […] In order to minimize the effect of protein aggregation, 0.05 Vol-% of Tween 20 (NanoTemper Technologies GmbH) were added to the HEPES/NaCl buffer solution. Samples were prepared in low-binding Eppendorf tubes. The influence of photobleaching on the quantum yield was reduced by using freshly diluted fluorophore solutions and storing the samples under the exclusion of light during the incubation time of 10 min. The samples were loaded into premium capillaries (NanoTemper Technologies GmbH). The coated capillary surface is designed to avoid the adhesion of molecules. Initially, repeated pre-tests without protein but with different fluorophore concentrations were carried out. This was done to find the optimum concentration and excitation power and to check the fluorescence activity of the fluorophores. The fluorescence intensity had to be in the range of 300 to 600 counts, with preferably smooth MST traces. For binding affinity measurements, the concentration of the fluorescent fatty acid was held constant at 80 nM, while the non-labeled FABPs were used at variable concentrations in a dilution series. The power of the IR laser was held constant at a medium set for all measurements, generating a constant temperature gradient. The measurements were performed as duplicates, using the software MO. Control (version 1.6) and afterward analyzed with the software MO. Affinity Analysis (version 2.3) (NanoTemper Technologies GmbH). The mean fluorescence intensities at the start time were divided by the values at the end time of the MST traces and normalized, obtaining the MST signal Fnorm. For all analyses, the end time was manually set to 1.5 s after the start of the heating process. Fnorm was normalized for the amplitude and baseline corrected to obtain the bound fraction.

[7] = target: T2, FABP4; assay: MST binding of fluorescent fatty acids to FABP4
Experimental: as §4, §5

[8] = target: T3, FABP5; assay: MST binding of fluorescent fatty acids to FABP5
Experimental: as §4, §5

[9] = 37 °C, 20 μM spin probe, EPR binding curve, read-out: KD,T,75′ (fit), apparent KD read at 75% totally bound
[10] = Fig. 2B, 20 μM 5-DSA with 100 μM FABP3
[11] = Hill fit of EPR binding curve, totally bound, 37 °C
[12] = Hill fit, totally bound (T), y = bound 5/16-DSA
[13] = read-out: KD,T,50′ (fit), apparent KD read at 50% totally bound, 37 °C, 20 μM spin probe, EPR binding curve
[14] = 80 nM rhodamine-PA, HEPES/NaCl pH 7.5 with 0.05 Vol-% Tween 20

Kd ([1]; 37 °C, 20 μM FABP3, 20 μM spin probe, read-out: KD,T,20μM (calculated, totally bound)): 0.82 ± 0.65 µM | Kd [1, 9]: 17.4 ± 0.2 µM | Kd ([1]; 37 °C, 50 μM FABP3, 20 μM spin probe, read-out: KD,T,50μM (calculated, totally bound)): 2.44 ± 1.87 µM | ΔGF−I,100μM (free to intermediately bound) ([1]; 37 °C, 100 μM FABP3): -6.84 ± 0.22 kcal/mol | ΔGF−S,100μM (free to strongly bound) ([1]; 37 °C, 100 μM FABP3): -4.4 ± 0.048 kcal/mol | ΔGF−T,100μM (free to totally bound) ([1]; 37 °C, 100 μM FABP3): -8.08 ± 0.813 kcal/mol | ΔGI−S,100μM (intermediately to strongly bound) ([1]; 37 °C, 100 μM FABP3): 1.27 ± 0.072 kcal/mol | Kd ([1]; 37 °C, 100 μM FABP3, 20 μM spin probe, read-out: KD,T,100μM (calculated, totally bound)): 2.06 ± 2.68 µM | aiso, component (1) free ([1]; 37 °C, EPR simulation): 44.1 MHz | aiso, component (2) intermediately bound ([1]; 37 °C, EPR simulation): 42.9 MHz | aiso, component (3) strongly bound ([1]; 37 °C, EPR simulation): 41.3 MHz | τc,iso, component (1) free ([1]; 37 °C, EPR simulation): 0.1 ns | τc,iso, component (2) intermediately bound ([1]; 37 °C, EPR simulation): 4.8–4.9 ns | τc,iso, component (3) strongly bound ([1]; 37 °C, EPR simulation): 17.9–19 ns | bound molecules at complete saturation ([1]; 37 °C, tenfold protein excess, totally bound): 100% | rotational correlation time τc, component (1) [1, 10]: 0.1 ns | rotational correlation time τc, component (3) [1, 10]: 17.8 ns | Hill coefficient n [1, 11]: 1.898 and > 1 | Hill fit k ([1]; Hill fit, totally bound (T), x = c(FABP3)/c(5/16-DSA)): 0.475 ± 0.019 | Hill fit Vmax [1, 12]: 98.766 ± 1.7 | Kd [1, 13]: 9.6 ± 0.1 µM | Kd ([2]; 20 μM FABP4, 20 μM spin probe, read-out: KD,T,20μM (calculated, totally bound)): 20.8 ± 0.8 µM | Kd ([2]; 20 μM spin probe, EPR binding curve, read-out: KD,T,75′ (fit), apparent KD read at 75% totally bound): 66 ± 0.7 µM | Kd ([2]; 50 μM FABP4, 20 μM spin probe, read-out: KD,T,50μM (calculated, totally bound)): 25.3 ± 1 µM | ΔGF−I,100μM (free to intermediately bound) ([2]; 100 μM FABP4): -6.19 ± 0.096 kcal/mol | ΔGF−S,100μM (free to strongly bound) ([2]; 100 μM FABP4): -4.85 ± 0.024 kcal/mol | ΔGF−T,100μM (free to totally bound) ([2]; 100 μM FABP4): -7.12 ± 0.263 kcal/mol | ΔGI−S,100μM (intermediately to strongly bound) ([2]; 100 μM FABP4): 0.741 ± 0.048 kcal/mol | Kd ([2]; 100 μM FABP4, 20 μM spin probe, read-out: KD,T,100μM (calculated, totally bound)): 9.53 ± 0.53 µM | aiso, component (1) free ([2]; EPR simulation): 44.1 MHz | aiso, component (2) intermediately bound ([2]; EPR simulation): 46.9 MHz | aiso, component (3) strongly bound ([2]; EPR simulation): 43.0 MHz | τc,iso, component (1) free ([2]; EPR simulation): 0.06–0.08 ns | τc,iso, component (2) intermediately bound ([2]; EPR simulation): 4.8 ns | τc,iso, component (3) strongly bound ([2]; EPR simulation): 17.9 ns | Hill coefficient n ([2]; Hill fit of EPR binding curve, totally bound): > 1 | Kd ([2]; read-out: KD,T,50′ (fit), apparent KD read at 50% totally bound, 20 μM spin probe, EPR binding curve): 31.6 ± 0.3 µM | Kd ([3]; 37 °C, 20 μM FABP5, 20 μM spin probe, read-out: KD,T,20μM (calculated, totally bound)): 2.05 ± 0.5 µM | Kd [3, 9]: 25 ± 0.3 µM | Kd ([3]; 37 °C, 50 μM FABP5, 20 μM spin probe, read-out: KD,T,50μM (calculated, totally bound)): 5.82 ± 1.14 µM | ΔGF−I,100μM (free to intermediately bound) ([3]; 37 °C, 100 μM FABP5): -6.14 ± 0.048 kcal/mol | ΔGF−S,100μM (free to strongly bound) ([3]; 37 °C, 100 μM FABP5): -4.97 ± 0.024 kcal/mol | ΔGF−T,100μM (free to totally bound) ([3]; 37 °C, 100 μM FABP5): -7.24 ± 0.19 kcal/mol | ΔGI−S,100μM (intermediately to strongly bound) ([3]; 37 °C, 100 μM FABP5): 0.621 ± 0.024 kcal/mol | Kd ([3]; 37 °C, 100 μM FABP5, 20 μM spin probe, read-out: KD,T,100μM (calculated, totally bound)): 7.79 ± 0.37 µM | aiso, component (1) free ([3]; 37 °C, EPR simulation): 44.1 MHz | aiso, component (2) intermediately bound ([3]; 37 °C, EPR simulation): 44.9–46.9 MHz | aiso, component (3) strongly bound ([3]; 37 °C, EPR simulation): 42.3–43.7 MHz | τc,iso, component (1) free ([3]; 37 °C, EPR simulation): 0.09–0.1 ns | τc,iso, component (2) intermediately bound ([3]; 37 °C, EPR simulation): 4.8 ns | τc,iso, component (3) strongly bound ([3]; 37 °C, EPR simulation): 17.9 ns | totally bound fraction ([3]; 37 °C, high FABP5 excess): 94.8% | Hill coefficient n [3, 11]: 1.109 ± 0.041 and ≈ 1 | Hill fit k ([3]; Hill fit, totally bound (T), x = c(FABP5)/c(5/16-DSA)): 0.352 ± 0.009 | Hill fit Vmax [3, 12]: 96.295 ± 0.907 | Kd [3, 13]: 6.6 ± 0.1 µM
Compound: CCCCCCCCCCCCCC1(CCCC(=O)O)OCC(C)(C)N1[O] (centres unmarked) [5-DSA, 5-DOXYL stearic acid]

bound 16-DSA with rising DHA content [4]: 55%
Compound: CC/C=C\C/C=C\C/C=C\C/C=C\C/C=C\C/C=C\CCC(=O)O [DHA, Cis-4,7,10,13,16,19-Docosahexaenoic acid]
displacement of 16-DSA [4]: no complete displacement of 16-DSA occurred

Compound: CCCCCCCC/C=C\CCCCCCCC(=O)O [oleic acid]
Kd [5]: 0.44 to 1.56 µM

lnKA [6]: 12.56 ± 0.11 | Kd [6, 14]: 3.5 ± 0.4 µM | ΔGm,A (molar Gibbs energy of association) ([6]; at 22 °C, van't Hoff equation): -7.36 ± 0.0645 kcal/mol | lnKA [7]: 11.46 ± 0.18 | Kd ([7]; 80 nM rhodamine-PA, FABP4 handled in water): 10.5 ± 2.1 µM | ΔGm,A (molar Gibbs energy of association) ([7]; at 22 °C, van't Hoff equation): -6.72 ± 0.105 kcal/mol | lnKA [8]: 11.7 ± 0.08 | Kd [8, 14]: 8.3 ± 0.7 µM | ΔGm,A (molar Gibbs energy of association) ([8]; at 22 °C, van't Hoff equation): -6.86 ± 0.048 kcal/mol
Compound: CCN(CC)c1ccc2c(-c3ccc(S(=O)(=O)NCCCCCCCCCCCCCCCC(=O)O)cc3S(=O)(=O)[O-])c3ccc(=[N+](CC)CC)cc-3oc2c1 [rhodamine-PA, [16-N-(lissamine rhodamine ß sulfonyl)amino] palmitic acid]
